Results from patent publication US20190375786A1, “STABLE PEPTIDES AND METHODS OF USE THEREOF” (Fred Hutchinson Cancer Research Center, priority 2016, published 2019).
Positions of bridges follow the written chain, without caps; N, C: chain ends. Residues, ends and D or L forms follow the SMILES beside them.

Experiments:
pepsin = pepsin (Sus scrofa, UniProt P00791); assay: Pepsin digestion resistance in simulated gastric fluid, RP-HPLC; format: in vitro ADME, porcine; set-up: purchased Sigma Aldrich P7012; details: 500 U/ml pepsin in SGF pH 1.05, 30 minutes at 37.5° C.; HPLC peak vs untreated peptide
Method in brief: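 Digestion resistance read by reversed-phase HPLC (C-18, 0.1% TFA, 5–45% acetonitrile over 10 min; 214/280 nm) after 12.5 μg peptide spent 30 min at 37.5 °C in pH 1.05 simulated gastric fluid, with or without 500 U/ml pepsin. Some samples quenched with Tris base and DTT.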

trypsin = trypsin (Sus scrofa, UniProt P00761); assay: Trypsin digestion resistance of soluble peptide, RP-HPLC; format: in vitro ADME, porcine; set-up: purchased Sigma Aldrich 6567; details: 500 U/ml trypsin, 30 minutes at 37.5° C.; HPLC peak vs untreated peptide
Method in brief: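 Read-out was RP-HPLC (C-18, water/acetonitrile with 0.1% TFA, 5-45% over 10 min) of peptide left after trypsin treatment. Digest: 12.5 μg peptide, 500 U/ml porcine trypsin, PBS, 37.5° C for 30 min, stopped by soybean trypsin inhibitor; samples then reduced (10 mM DTT) or left non-reduced.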

Sequence of pepsin (P00791 60-385): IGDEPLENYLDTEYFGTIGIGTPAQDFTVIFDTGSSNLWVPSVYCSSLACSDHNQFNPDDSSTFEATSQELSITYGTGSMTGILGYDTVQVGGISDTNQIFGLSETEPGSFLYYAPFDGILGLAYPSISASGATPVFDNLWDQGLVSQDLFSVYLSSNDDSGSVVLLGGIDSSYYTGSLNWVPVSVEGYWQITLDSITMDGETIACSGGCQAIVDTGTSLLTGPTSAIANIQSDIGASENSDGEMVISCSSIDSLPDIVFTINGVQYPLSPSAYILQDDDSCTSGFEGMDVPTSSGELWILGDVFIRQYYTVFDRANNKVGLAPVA
Sequence of trypsin (P00761 9-231): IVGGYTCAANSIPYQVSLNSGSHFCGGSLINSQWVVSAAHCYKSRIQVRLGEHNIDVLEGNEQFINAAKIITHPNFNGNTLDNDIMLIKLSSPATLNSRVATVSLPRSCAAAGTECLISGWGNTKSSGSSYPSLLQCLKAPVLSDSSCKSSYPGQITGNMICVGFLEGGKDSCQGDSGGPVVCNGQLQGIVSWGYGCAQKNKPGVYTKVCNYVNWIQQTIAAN

Row | SMILES | Resistance to Pepsin (500 U/ml) (pepsin) | Resistance to Trypsin (500 U/ml) (trypsin)
1 | CC[C@H](C)[C@@H]1NC(=O)[C@@H]2CSSC[C@H](NC(=O)[C@H](C)NC(=O)CNC(=O)[C@H](CCC(=O)O)NC(=O)[C@@H](NC(=O)[C@H](CCCCN)NC(=O)[C@H](Cc3ccccc3)NC(=O)[C@H](CC(N)=O)NC(=O)[C@H](CO)NC(=O)CN)C(C)C)C(=O)N[C@@H](CO)C(=O)N[C@@H](CCCCN)C(=O)N3CCC[C@H]3C(=O)N[C@H]3CSSC[C@H](NC(=O)[C@H](CCCNC(=N)N)NC(=O)CNC(=O)[C@H](CC(N)=O)NC1=O)C(=O)N[C@@H](Cc1c[nH]cn1)C(=O)N[C@H](C(=O)N[C@@H](Cc1ccc(O)cc1)C(=O)N[C@@H](Cc1ccc(O)cc1)C(=O)O)CSSC[C@H](NC(=O)[C@H](Cc1ccc(O)cc1)NC(=O)[C@H](CCCCN)NC(=O)[C@H](CCCNC(=N)N)NC3=O)C(=O)N[C@@H]([C@@H](C)CC)C(=O)N[C@@H](CC(=O)O)C(=O)N[C@@H](CCCCN)C(=O)NCC(=O)N[C@@H](C)C(=O)N[C@@H](CCCNC(=N)N)C(=O)N[C@@H](CC(N)=O)C(=O)NCC(=O)N[C@@H](CCCCN)C(=O)N2 [compound 5] (H-GSNFKVEGACSKPCRKYCIDKGARNGKCINGRCHCYY-OH; disulfide 10-28, 14-33, 18-35) | Moderate (A peptide classified as medium indicates that about half (between 25% and 75%) of the HPLC peak of the treated peptide disappeared as compared to the HPLC peak of the untreated peptide) | Moderate (A peptide classified as medium indicates that about half (between 25% and 75%) of the HPLC peak of the treated peptide disappeared as compared to the HPLC peak of the untreated peptide)
2 | CC[C@H](C)[C@@H]1NC(=O)[C@@H]2CSSC[C@H](NC(=O)[C@H](CCCCN)NC(=O)[C@@H](NC(=O)[C@H](CC(N)=O)NC(=O)[C@@H](NC(=O)[C@@H]3CCCN3C(=O)[C@@H](NC(=O)CNC(=O)[C@H](CO)NC(=O)CN)C(C)C)[C@@H](C)CC)C(C)C)C(=O)N[C@@H](CCCNC(=N)N)C(=O)NCC(=O)N[C@@H](CO)C(=O)N[C@@H](CCCNC(=N)N)C(=O)N[C@@H](CC(=O)O)C(=O)N[C@H]3CSSC[C@H](NC(=O)[C@H](CCCCN)NC(=O)[C@H](CO)NC(=O)[C@H](CC(N)=O)NC1=O)C(=O)N[C@@H](Cc1c[nH]cn1)C(=O)N[C@H](C(=O)N[C@H](C(=O)N1CCC[C@H]1C(=O)O)[C@@H](C)O)CSSC[C@H](NC(=O)[C@@H]1CCCN1C(=O)[C@H](CC(=O)O)NC(=O)[C@H](CC(C)C)NC3=O)C(=O)N[C@@H](CCCCN)C(=O)N[C@@H](CCCCN)C(=O)N[C@@H](C)C(=O)NCC(=O)N[C@@H](CCSC)C(=O)N[C@@H](CCCNC(=N)N)C(=O)N[C@@H](Cc1ccccc1)C(=O)NCC(=O)N[C@@H](CCCCN)C(=O)N2 [compound 27] (H-GSGVPINVKCRGSRDCLDPCKKAGMRFGKCINSKCHCTP-OH; disulfide 10-30, 16-35, 20-37) | High (A peptide classified as high indicates that the majority (at least 75%) of the HPLC peak of the treated peptide is still present as compared to the HPLC peak of the untreated peptide) | High (A peptide classified as high indicates that the majority (at least 75%) of the HPLC peak of the treated peptide is still present as compared to the HPLC peak of the untreated peptide)
3 | CC[C@H](C)[C@H](NC(=O)[C@@H](NC(=O)[C@@H](NC(=O)[C@H](CO)NC(=O)CN)C(C)C)C(C)C)C(=O)NCC(=O)N[C@@H](CCC(N)=O)C(=O)N[C@@H](CCCNC(=N)N)C(=O)N[C@H]1CSSC[C@@H]2NC(=O)[C@H](CCCCN)NC(=O)CNC(=O)[C@H]([C@@H](C)O)NC(=O)[C@H](C)NC(=O)[C@H](CCCCN)NC(=O)CNC(=O)[C@H](C(C)C)NC(=O)[C@H](CC(C)C)NC(=O)[C@H](CCCCN)NC(=O)[C@H](CCCCN)NC(=O)[C@@H]3CSSC[C@@H](C(=O)O)NC(=O)[C@H](CC(=O)O)NC(=O)[C@H](CSSC[C@H](NC(=O)[C@H](CC(=O)O)NC(=O)[C@@H]4CCCN4C(=O)[C@H](CO)NC(=O)[C@H](CCCNC(=N)N)NC(=O)[C@H](Cc4ccc(O)cc4)NC1=O)C(=O)N[C@@H](Cc1ccc(O)cc1)C(=O)N[C@@H](CO)C(=O)N[C@@H](C)C(=O)N3)NC(=O)[C@H](CCCNC(=N)N)NC(=O)CNC(=O)[C@H](CC(N)=O)NC(=O)[C@H]([C@@H](C)O)NC2=O [compound 36] (H-GSVVIGQRCYRSPDCYSACKKLVGKATGKCTNGRCDC-OH; disulfide 9-30, 15-35, 19-37) | High (A peptide classified as high indicates that the majority (at least 75%) of the HPLC peak of the treated peptide is still present as compared to the HPLC peak of the untreated peptide) | Low (A peptide classified as low indicates that the majority (over 75%) of the HPLC peak of the treated peptide disappeared as compared to the HPLC peak of the untreated peptide)
4 | CC[C@H](C)[C@@H]1NC(=O)[C@H](CCCNC(=N)N)NC(=O)[C@H]([C@@H](C)CC)NC(=O)[C@@H]2CSSC[C@@H](C(=O)N[C@@H](Cc3ccc(O)cc3)C(=O)N3CCC[C@H]3C(=O)O)NC(=O)[C@H](Cc3ccc(O)cc3)NC(=O)[C@@H]3CSSC[C@H](NC(=O)[C@H](CCC(=O)O)NC(=O)[C@H](CO)NC(=O)[C@H](CO)NC(=O)[C@H](CC(N)=O)NC(=O)[C@H](CC(N)=O)NC(=O)[C@@H](NC(=O)[C@H](CCCNC(=N)N)NC(=O)[C@H](CC(N)=O)NC(=O)[C@H](CO)NC(=O)[C@H](CC(C)C)NC(=O)[C@@H](NC(=O)[C@H](CCCCN)NC(=O)[C@H](CCC(N)=O)NC(=O)[C@H](CO)NC(=O)CN)[C@@H](C)CC)CSSC[C@H](NC(=O)[C@H](CCCCN)NC(=O)[C@H](C)NC(=O)[C@H](C)NC(=O)[C@H](CCCNC(=N)N)NC(=O)[C@H]([C@@H](C)O)NC(=O)CNC(=O)[C@H](Cc4ccccc4)NC1=O)C(=O)N[C@@H]([C@@H](C)CC)C(=O)N[C@@H](CC(N)=O)C(=O)N[C@@H](CCCNC(=N)N)C(=O)N[C@@H](CCCCN)C(=O)N3)C(=O)N[C@@H]([C@@H](C)CC)C(=O)N1CCC[C@H]1C(=O)N[C@@H](Cc1c[nH]cn1)C(=O)N2 [compound 6] (H-GSQKILSNRCNNSSECIPHCIRIFGTRAAKCINRKCYCYP-OH; disulfide 10-31, 16-36, 20-38) | High (A peptide classified as high indicates that the majority (at least 75%) of the HPLC peak of the treated peptide is still present as compared to the HPLC peak of the untreated peptide) | High (A peptide classified as high indicates that the majority (at least 75%) of the HPLC peak of the treated peptide is still present as compared to the HPLC peak of the untreated peptide)
5 | CC[C@H](C)[C@@H]1NC(=O)[C@@H](NC(=O)[C@H](CC(=O)O)NC(=O)[C@H](CCCCN)NC(=O)[C@H](CCC(=O)O)NC(=O)[C@H](CO)NC(=O)[C@H](CO)NC(=O)CN)CSSC[C@@H]2NC(=O)[C@@H]3CSSC[C@@H](C(=O)N[C@@H](CCCNC(=N)N)C(=O)O)NC(=O)[C@H](CCCNC(=N)N)NC(=O)[C@H](CCCCN)NC(=O)[C@H](CCC(=O)O)NC(=O)[C@@H]4CCCN4C(=O)[C@H](CC(N)=O)NC(=O)[C@H]([C@@H](C)O)NC(=O)CNC(=O)[C@H](CCCNC(=N)N)NC(=O)[C@H](CCCNC(=N)N)NC(=O)[C@H](CO)NC(=O)[C@H](CSSC[C@H](NC(=O)[C@H](CCCNC(=N)N)NC(=O)[C@H](CCC(N)=O)NC(=O)[C@H](CC(C)C)NC(=O)[C@H](Cc4c[nH]cn4)NC(=O)[C@H](CCCCN)NC1=O)C(=O)N[C@@H](CCCNC(=N)N)C(=O)N[C@@H](CCC(=O)O)C(=O)N[C@@H](CC(N)=O)C(=O)N[C@@H](CCCCN)C(=O)N[C@@H](CC(=O)O)C(=O)N3)NC(=O)[C@H](CCCCN)NC(=O)[C@H](CCCCN)NC(=O)[C@H](CO)NC2=O [compound 29] (H-GSSEKDCIKHLQRCRENKDCCSKKCSRRGTNPEKRCR-OH; disulfide 7-21, 14-25, 20-36) | High (A peptide classified as high indicates that the majority (at least 75%) of the HPLC peak of the treated peptide is still present as compared to the HPLC peak of the untreated peptide) | Low (A peptide classified as low indicates that the majority (over 75%) of the HPLC peak of the treated peptide disappeared as compared to the HPLC peak of the untreated peptide)
6 | CC[C@H](C)[C@@H]1NC(=O)[C@H](C)NC(=O)[C@H](CCC(=O)O)NC(=O)[C@H](CCCCN)NC(=O)[C@@H]2CSSC[C@@H](C(=O)N[C@@H](Cc3ccc(O)cc3)C(=O)N3CCC[C@H]3C(=O)O)NC(=O)[C@H](CCCCN)NC(=O)[C@@H]3CSSC[C@H](NC(=O)[C@H](CCC(=O)O)NC(=O)[C@@H]4CCCN4C(=O)[C@H](CO)NC(=O)CNC(=O)[C@H](CCCNC(=N)N)NC(=O)[C@@H](NC(=O)[C@H](CCCCN)NC(=O)[C@@H](NC(=O)[C@H](CC(N)=O)NC(=O)[C@@H](NC(=O)[C@H](Cc4ccccc4)NC(=O)[C@@H](NC(=O)[C@H](CO)NC(=O)CN)C(C)C)[C@@H](C)CC)C(C)C)CSSC[C@H](NC(=O)[C@H](CCCCN)NC(=O)CNC(=O)[C@H](C)NC(=O)[C@H](CO)NC(=O)[C@H](CCCCN)NC(=O)CNC1=O)C(=O)N[C@@H](CCSC)C(=O)N[C@@H](CC(N)=O)C(=O)NCC(=O)N[C@@H](CCCCN)C(=O)N3)C(=O)N[C@@H](CC(C)C)C(=O)N1CCC[C@H]1C(=O)N[C@@H](CCCCN)C(=O)N2 [compound 37] (H-GSVFINVKCRGSPECLPKCKEAIGKSAGKCMNGKCKCYP-OH; disulfide 9-30, 15-35, 19-37) | High (A peptide classified as high indicates that the majority (at least 75%) of the HPLC peak of the treated peptide is still present as compared to the HPLC peak of the untreated peptide) | Low (A peptide classified as low indicates that the majority (over 75%) of the HPLC peak of the treated peptide disappeared as compared to the HPLC peak of the untreated peptide)
